Measurements taken from patent US20050239873A1 (priority 1999, published 2005).
Like-named read-outs stand apart in the source and are kept apart here.

What was measured:
Stability in plasma [1] = assay type: in vitro ADME, rat; conditions: 37° C., 60 min, presence of NaF/EDTA
Method: (§1) For analysis of samples, two volumes of cold methanol-acetonitrile (50:50, v/v) were added to portions of plasma, culture medium, or cell extract. The preparations were mixed and then centrifuged to obtain clear supernatants, which were dried at room temperature by compressed air. The residues were dissolved in the mobile phase, and a portion was injected onto the HPLC column.
(§2) The HPLC equipment consisted of a Hewlett Packard 1050 ChemStation with a fluorescence detector (Agilent 100 series). […] The mobile phase was methanol:ammonium acetate buffer (87:13 v/v; 0.2 M; pH 5.8, adjusted with HCl). The flow rate was 1 ml/min. The column elute was monitored fluorometrically at an excitation wavelength of 232 nm and an emission wavelength of 418 nm. The amounts of test compounds present in samples were determined from the peak areas.
(§3) Samples of mouse, rat, dog, and human plasma were incubated at 37° C. with and without addition of NaF (2.5 mg/ml) and EDTA (1 mg/ml). To these preparations, 2-OMe antimycin A1, 2-OMe antimcyin A2, 2-OMe antimycin A3, or 2-OMe antimycin A5, dissolved in methanol, was added to final concentrations of 500 ng/ml. Portions of plasma, taken at selected times after addition of the 2-OMe antimycin analog, were extracted and analyzed.

plasma proteins = experiment: Binding to plasma proteins (ultrafiltration); assay type: in vitro ADME, rat; conditions: presence of NaF+EDTA, 1000 ng/ml
Stability in plasma [2] = assay type: in vitro ADME, mouse; conditions: for stability: 37° C., 60 min
Method: as §1, §2, §3
Similarly, the stability of 2-OMe antimycin A1, 2-OMe antimycin A2, […] in the plasma from mice and humans was evaluated at −80° C. From these preparations, portions were analyzed immediately; other portions were stored at -80° C. and analyzed after 1, 2, and 4 weeks.

[3] = Pharmacokinetic evaluation in Fischer 344 rats; assay type: in vivo, rat; conditions: intravenous 0.25 mg/kg; for amount detectable in plasma: 2 hr after dosing; for amounts in the urine, livers, or kidneys: 24 hr after dosing
Method: Male Fischer 344 rats (five/group) were dosed via a lateral tail vein with either 2-OMe-A1 or 2-OMe-A3 (0.25 mg/kg) administered as a 1-min intravenous push. The dosing vehicle was the same as that used for mice. The dosing volume was 1.3 ml/kg. Blood samples were collected and analyzed. Further, samples of plasma, urine, livers, and kidneys were collected from rats kept in metabolism cages for 24 hr. To retard the breakdown of the test compounds, NaF+EDTA was present in the tubes used for collecting blood and urine and was added to tissue homogenates.
Pharmacokinetic values were derived with WinNonlin® software (Mountain View, Calif.).

NOD/SCID mice = experiment: In vivo toxicity, intravenous dosing
RPMI-8226 = experiment: Propidium iodide exclusion / flow cytometry cytotoxicity; assay type: cell-based, human; conditions: for mode of induced cell death: annexin V, sub-G1 DNA content, mitochondrial membrane potential
Method: Cell survival was assayed by exclusion of propidium iodide (PI; 10 μg/ml) by unfixed cells. Annexin V-FITC (Pharmingen) or 3, 3′-dihexyloxacarbocyanine iodide (DiOC6(3); Molecular Probes) staining was analyzed together with PI to discriminate early apoptotic cells. Apoptotic cells were also measured as sub-G1 events among ethanol-fixed cells stained with 10 μg/ml PI. All cell samples were analyzed using a benchtop FACSCalibur™ (Becton Dickinson, San Jose, Calif.). Flow data were analyzed using MultiCycle AV software (Phoenix Flow Systems). For intracellular pH measurements, cell pellets were washed once and resuspended in 2 ml of HEPES-buffered medium (no phenol red and no serum). Carboxy-SNARF-1-AM (Molecular Probes, 1 mM stock in DMSO, stored at −20° C.) was added to a final concentration of 10 μM, and the cells were incubated for 30 min at 37° C. Following incubation with SNARF, cells were sedimented and the pellets were held on ice. Immediately before analysis, pellets were resuspended in […] (HBSS; experimental buffer) or high-[K+] buffer containing nigericin (calibration samples).

AML-12.Bcl-xL cells = experiment: Sensitivity of non-tumorigenic liver cells to antimycin A; assay type: cell-based, mouse; conditions: vs AML-12 control transfectants
Source text: The effects of BCl-xL over-expression on non-tumorigenic cells was also examined. […] Briefly, AML-12 cells were transfected as described above with pSFFV.Bcl-xL(sense) and pSFFV.neo. AML-12-pSFFV. Bcl-xL(sense) cells expressed approximately 3 to 4 fold higher BCl-xL protein levels than did AML-12 cells transfected with the control plasmid, pSFFV.neo, when assayed by Western blot analysis.

S9 metabolism = assay type: in vitro ADME, human; conditions: pH 7.4
Source text: All chemicals and solvents used for sample preparation and HPLC analysis were analytical grade. Acetonitrile, methanol, and phosphoric acid were purchased from Fisher Scientific (Atlanta, Ga.). Hepatic S9 fractions from male CD2F1 mice, male Sprague Dawley rats, male dogs, and male humans were purchased from In Vitro Technologies (Boston, Mass.). The National Cancer Institute provided samples of the test compounds and male CD2F1 mice. Fischer 344 rats with implanted jugular cannulas were obtained from Charles River Laboratories (Cambridge, Mass.). All animal use and care procedures were approved by the Institutional Committee on Animal Use and Care at the University of Alabama at Birmingham and conformed to the guidelines found in Guide for the Care and Use of Laboratory Animals, National Academy Press, 1996.
To evaluate metabolism of the test compounds by S9 fractions from various species, reaction systems maintained at 37° C. contained 2-OMe-A3 (500 ng/ml) and S9 (1 mg protein/ml) in 100 mM Tris buffer (pH 7.4). At selected times, triplicate portions of the mixtures were removed and processed for analysis, as described above.

cellular O2 consumption = experiment: Cellular O2 consumption; assay type: cell-based; conditions: compared to antimycin A3

For `CCCCCC[C@H]1C(=O)O[C@H](C)[C@H](NC(=O)c2cccc(NC=O)c2OC)C(=O)O[C@@H](C)[C@@H]1OC(=O)CC(C)C` [2-OMeA1, 2-methoxy antimycin A1], the stability (Stability in plasma [1]) was “substantially stable”, the “Protein binding, Rat” value (plasma proteins) was >99.9% and the stability (Stability in plasma [2]; presence of NaF/EDTA) was “substantially stable”. For the same compound, the “amounts remaining after 4 weeks” value (Stability in plasma [2]; -80° C., presence of NaF/EDTA) was 96%, the “amounts remaining after 4 weeks” value (Stability in plasma [2]; −80° C., absence of NaF/EDTA) was 78% and the “amount detectable in plasma” value [3] was “little or no”. The “amounts in the urine, livers, or kidneys” value [3] was “little or no detectable amounts”, the AUC [3] was 47 ng·h/mL and the Cmax [3] was 970 ng/mL. For the same compound, the MRT [3] was 3.3 min, the T1/2 [3] was 2.3 min and the Vss [3] was 0.29 mL/g. The “histologic examinations of normal tissues” value (NOD/SCID mice; 10 mg/kg) was “No cellular injury or inflammation”, the “reformation of antimycin A1 in plasma” value (NOD/SCID mice; preliminary LC/MS analyses of plasma after administration) was “have not demonstrated reformation” and the “mice survived without apparent toxicity” value (NOD/SCID mice; three intravenous doses of 10 mg/kg on alternate days) was 6 of 6. For the same compound, the adverse effects (NOD/SCID mice; treated tumor-bearing mice, 10 mg/kg) was “No adverse effects”.
For antimycin A, the “time of treatment at which cell death was demonstrated” value (RPMI-8226) was ≤ 8 h, the “sensitivity (PI exclusion)” value (RPMI-8226; 5 to about 20 μg/ml) was “sensitive” and the “mode of induced cell death” value (RPMI-8226) was “apoptosis”. The “sensitivity to antimycin A” value (AML-12.Bcl-xL cells) was “increased sensitivity”.
With `CCCC[C@H]1C(=O)OC(C)[C@H](NC(=O)c2cccc(NC=O)c2OC)C(=O)O[C@@H](C)C1OC(=O)CC(C)C` (some centres unmarked) [2-OMeA3, Antimycin A3 methyl ether] the stability (Stability in plasma [1]) was “largely stable”, the “Protein binding, Rat” value (plasma proteins) was 99.8% and the half-life (S9 metabolism; 500 ng/ml, 37° C.) was “only slightly less than that for the control”. For the same compound, the half-life at 2000 ng/ml (S9 metabolism; male, human, hepatic S9 fraction, 2000 ng/ml) was ~10 min, the “effect on cellular O2 consumption” value (cellular O2 consumption) was “negligible effect” and the stability (Stability in plasma [2]; presence of NaF/EDTA) was “notable decreases in concentration”. The “amounts remaining after 4 weeks” value (Stability in plasma [2]; -80° C., presence of NaF/EDTA) was 90%, the “amounts remaining after 4 weeks” value (Stability in plasma [2]; −80° C., absence of NaF/EDTA) was 45% and the “amount detectable in plasma” value [3] was “little or no”. For the same compound, the “amounts in the urine, livers, or kidneys” value [3] was “little or no detectable amounts”, the half-life ([3]; male, Fischer 344, rat, plasma) was 1 min and the AUC ([3]; male, Fischer 344, rat, plasma, read-out: AUC) was 18 ng·h/mL. For the same compound, the Cmax ([3]; male, Fischer 344, rat, plasma, read-out: Cmax) was 920 ng/mL, the MRT ([3]; male, Fischer 344, rat, plasma, read-out: MRT (converted)) was 1.4 min and the Vd ([3]; male, Fischer 344, rat, plasma, read-out: Vss) was 0.37 L/kg.
With 2-methoxy antimycin A [2-OMeA] the “cell killing measured as PI uptake, compared with antimycin A” value (RPMI-8226; 5 and 20 μg/ml, three cell lines) was “similar”, the “mode of induced cell death” value (RPMI-8226) was “apoptosis” and the mice died (NOD/SCID mice; intravenous 20 mg/kg) was “Three of six”.
